Data as given in patent publication US20230219951A1, “PYRIDINE-PYRIMIDINE DERIVATIVE, PREPARATION METHOD THEREFOR AND PHARMACEUTICAL USE THEREOF” (Jiangsu Hengrui Pharmaceuticals Co., Ltd., priority 2020, published 2023).

How the values were obtained:
[1] = target: T1, interaction between the KRAS protein subtype G12V and the SOS1 protein (Homo sapiens, UniProt Q07889); assay: Inhibition of the interaction between KRAS G12V and SOS1 protein (AlphaLISA/AlphaScreen); assay type: binding; conditions: KRAS G12V + GST-TEV-SOS1(564-1049) + GDP
T1 construct: GST-TEV-SOS1(564-1049) (Viva Biotech, SOS1-191010); purchased SOS1: Viva Biotech; KRAS: Shanghai Panchao Biotechnology Co., Ltd. SOS1-191010
T1 sequence (Q07889 564-1049): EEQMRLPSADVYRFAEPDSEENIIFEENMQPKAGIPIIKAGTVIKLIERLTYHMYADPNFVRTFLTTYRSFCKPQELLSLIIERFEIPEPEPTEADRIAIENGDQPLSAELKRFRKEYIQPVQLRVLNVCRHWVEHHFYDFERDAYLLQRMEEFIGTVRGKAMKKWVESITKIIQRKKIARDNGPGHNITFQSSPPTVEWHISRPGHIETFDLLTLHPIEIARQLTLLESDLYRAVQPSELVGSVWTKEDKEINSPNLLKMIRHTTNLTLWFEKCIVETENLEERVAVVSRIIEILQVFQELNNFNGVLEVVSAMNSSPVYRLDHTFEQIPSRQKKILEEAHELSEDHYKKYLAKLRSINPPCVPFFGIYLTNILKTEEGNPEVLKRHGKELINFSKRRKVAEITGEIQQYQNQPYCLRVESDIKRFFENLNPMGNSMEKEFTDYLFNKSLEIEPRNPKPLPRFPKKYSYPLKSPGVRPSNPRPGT
Experimental: (§1) Test Example 1: Inhibitory Ability of Compounds of the Present Disclosure to the Interaction Between the KRAS Protein Subtype G12D or G12V and the SOS1 Protein. The inhibitory ability of the compounds of the present disclosure to the interaction between the KRAS protein subtype G12D or G12V and the SOS1 protein was determined by the following method. The experimental method was briefly described as follows:
(§2) 1. The experimental buffer was prepared prior to the start of the experiment: 1×PBS+0.1% BSA+0.05% tween 20.
(§3) 2. KRAS G12D and KRAS-G12V proteins were labeled with biotin using the biotin labeling kit.
(§4) 1. Firstly, the biotin-labeled KRAS G12D or KRAS G12V protein was mixed and incubated with the SOS1 protein and GDP for later use.
(§5) 2. AlphaLISA glutathione acceptor beads and AlphaScreen streptavidin donor beads were mixed at a ratio of 1:1 to make the concentration of 40 μg/mL for later use.
(§6) 3. The compound was formulated with the experimental buffer to obtain 10 concentration points by 5-fold gradient dilution from an initial concentration of 40 μM.
(§7) 4. In the 384-well microplate, 10 μL of a mixture of KRAS G12D or KRAS G12V protein and SOS1 and GDP and 5 μL of the diluted compound were added to each well and incubated at room temperature for 30 min away from the light.
(§8) 5. Then, 5 μL of a mixture of AlphaLISA glutathione acceptor beads and AlphaScreen streptavidin donor beads was added to each well and incubated at room temperature for 60 min away from the light.
(§9) 6. The fluorescence values were read on a multi-mode microplate reader.
(§10) 7. IC50 values of the compounds were calculated using Graphpad Prism.

[2] = target: T2, interaction between the KRAS protein subtype G12D and the SOS1 protein (Homo sapiens, UniProt Q07889); assay: Inhibition of the interaction between KRAS G12D and SOS1 protein (AlphaLISA/AlphaScreen); assay type: binding; conditions: KRAS G12D + GST-TEV-SOS1(564-1049) + GDP
T2 construct: GST-TEV-SOS1(564-1049) (Viva Biotech, SOS1-191010); purchased SOS1: Viva Biotech; KRAS: Shanghai Panchao Biotechnology Co., Ltd. SOS1-191010
T2 sequence (Q07889 564-1049): T1 sequence (Q07889 564-1049)
Experimental: as §1, §2, §3, §4, §5, §6, §7, §8, §9, §10

[3] = tested on: ERK phosphorylation of H358 cells; assay: Inhibition of ERK phosphorylation of H358 cells (HTRF pERK/total ERK); assay type: cell-based; conditions: Homo sapiens, NCI-H358, 1 h incubation, pERK/total ERK ratio
Experimental: This experiment is intended to evaluate the inhibition effect of the compounds of the present disclosure on the KRAS target (containing the G12C mutation) according to IC50 by determining the inhibition effect of the compounds on ERK phosphorylation of the cells.
H358 cells (ATCC, CRL-5807) were cultured in RPMI1640 (Hyclone, SH30809.01) complete medium containing 10% fetal bovine serum. On the first day of the experiment, the H358 cells were seeded into a 96-well plate at a density of 25,000 cells/well with a complete medium to form 190 μL of cell suspension per well. The plate was incubated overnight in a cell incubator at 37° C. with 5% CO2. The next day, 10 μL of test compound diluted in a gradient prepared with the complete medium was added to each well. The final concentrations of the compound were 9 concentration points obtained by 5-fold gradient dilution from 10 μM. A blank control containing 0.1% DMSO was set. The plate was incubated in a cell incubator at 37° C. with 5% CO2 for 1 h. 1 h later, the 96-well cell culture plate was taken out, the medium was removed by pipetting, 200 μL PBS (Shanghai BasalMedia Technologies Co., Ltd., B320) was added to each well, and the cells were washed once. PBS was removed by pipetting, 50 μL of lysis buffer (Cisbio, 64KL1FDF) containing a blocking reagent (Cisbio, 64KB1AAC) was added to each well, and the plate was shaken on a shaker at room temperature for 40 min for lysis. After lysis, the lysate was pipetted and mixed well, 16 μL of lysate was transferred from each well to each of two HTRF 96-well assay plates (Cisbio, 66PL96100), and then 4 μL of premixed phospho-ERK1/2 antibody solution (Cisbio, 64AERPEG) or 4 μL of premixed total-ERK1/2 antibody solution (Cisbio, 64NRKPEG) was added to each of the two plates. The microplate was sealed with a sealing membrane, centrifuged for 1 min in a microplate centrifuge, and incubated overnight at room temperature away from the light. On the third day, the fluorescence values at an excitation wavelength of 337 nm and at emission wavelengths of 665 nm and 620 nm were read using a PHERAstar multi-mode microplate reader (BMG Labtech, S/N 471-0361).
IC50 values for inhibitory activity of the compounds were calculated using Graphpad Prism software based on compound concentrations and pERK/total ERK ratio.

H358 cells = assay: Inhibition of proliferation of H358 cells (CellTiter-Glo 3D); assay type: cell-based; conditions: Homo sapiens, NCI-H358, low adsorption plate, 120 h
Experimental: This example is intended to evaluate the inhibition effect of the compounds of the present disclosure on the KRAS target (containing the G12C mutation) by testing the inhibition effect of the compounds of the present disclosure on the proliferation of H358 cells.
H358 cells (ATCC, CRL-5807) were cultured in a complete medium, namely RPMI1640 medium (Hyclone, SH30809.01) containing 10% fetal bovine serum (Corning, 35-076-CV). On the first day of the experiment, the H358 cells were seeded into a 96-well low adsorption plate (Coming, CLS7007-24EA) at a density of 1500 cells/well with a complete medium to form 90 μL of cell suspension per well. The plate was centrifuged at 2000 rpm for 5 min at room temperature and then incubated overnight in a cell incubator at 37° C. with 5% CO2. The next day, 10 μL of test compound diluted in a gradient prepared with the complete medium was added to each well. The final concentrations of the compound were 9 concentration points obtained by 5-fold gradient dilution from 10 μM. A blank control containing 0.1% DMSO was set. The plate was incubated in a cell incubator at 37° C. with 5% CO2 for 120 h. On the seventh day, the 96-well cell culture plate was taken out and 50 μL of CellTiter-Glo® 3D reagent (Promega, G9682) was added into each well. The plate was shaken at room temperature for 25 min, pipetted and mixed well, from which 50 μL of the mixture was transferred into a white impermeable 96-well plate (PE, 6005290). The luminescence signal values were read using a multi-mode microplate reader (PerkinElmer, VICTOR 3).
IC50 values for the inhibitory activity of the compounds were calculated using Graphpad Prism software.

| SMILES | IC50 [1] | IC50 [2] | IC50 [3] | IC50 (H358 cells) |
| --- | --- | --- | --- | --- |
| Cc1nc(N[C@H](C)c2cccc(C(F)F)c2F)c2cc(C3(O)CCN(C(=O)CF)CC3)c(=O)[nH]c2n1 (racemic) [Example 22, rac-(R)-4-((1-(3-(difluoromethyl)-2-fluorophenyl)ethyl)amino)-6-(1-(2-fluoroacetyl)-4-hydroxypiperidin-4-yl)-2-methylpyrido[2,3-d]pyrimidin-7(8H)-one] | 27 nM | 14 nM |  |  |
| Cc1nc(N[C@H](C)c2cccc3c2OCC3(F)F)c2cc([C@]3(O)CC[C@@H](O)CC3)c(=O)[nH]c2n1 (racemic) [Example 25-p1, rac-4-(((R)-1-(3,3-difluoro-2,3-dihydrobenzofuran-7-yl)ethyl)amino)-6-((1s,4S)-1,4-dihydroxycyclohexyl)-2-methylpyrido[2,3-d]pyrimidin-7(8H)-one] | 35 nM | 31 nM | 101 nM | 120 nM |
| CC(=O)N1CC(Oc2cc3c(N[C@H](C)c4cccc(C(F)F)c4F)nc(C)nc3[nH]c2=O)C1 (racemic) [Example 26, rac-(R)-6-((1-acetylazetidin-3-yl)oxy)-4-((1-(3-(difluoromethyl)-2-fluorophenyl)ethyl)amino)-2-methylpyrido[2,3-d]pyrimidin-7(8H)-one] | 65 nM | 44 nM |  | 346 nM |
| Cc1nc(N[C@H](C)c2cc(N)cc(C(F)(F)F)c2)c2cc(C3=CCOCC3)c(=O)[nH]c2n1 [Example 3, (R)-4-((1-(3-amino-5-(trifluoromethyl)phenyl)ethyl)amino)-6-(3,6-dihydro-2H-pyran-4-yl)-2-methylpyrido[2,3-d]pyrimidin-7(8H)-one] |  |  | 55 nM |  |
| Cc1nc(N[C@H](C)c2cccc(C(F)F)c2F)c2cc(C3=CCOCC3)c(=O)[nH]c2n1 [Example 5, (R)-4-((1-(3-(difluoromethyl)-2-fluorophenyl)ethyl)amino)-6-(3,6-dihydro-2H-pyran-4-yl)-2-methylpyrido[2,3-d]pyrimidin-7(8H)-one] | 79 nM | 42 nM |  | 461 nM |
| Cc1nc(N[C@H](C)c2cccc(C(F)F)c2F)c2cc(C3CCOCC3)c(=O)[nH]c2n1 [Example 6, (R)-4-((1-(3-(difluoromethyl)-2-fluorophenyl)ethyl)amino)-2-methyl-6-(tetrahydro-2H-pyran-4-yl)pyrido[2,3-d]pyrimidin-7(8H)-one] | 56 nM | 30 nM |  | 345 nM |
| Cc1nc(N[C@H](C)c2cccc(C(F)(F)CO)c2F)c2cc(OC3CCOC3)c(=O)[nH]c2n1 (stereo partly drawn) [Example 9, 4-(((R)-1-(3-(1,1-difluoro-2-hydroxyethyl)-2-fluorophenyl)ethyl)amino)-2-methyl-6-(((R)-tetrahydrofuran-3-yl)oxy)pyrido[2,3-d]pyrimidin-7(8B)-one] | 41 nM | 8 nM |  | 106 nM |
| Cc1nc(N[C@H](C)c2cccc(C(F)F)c2F)c2cc(O[C@H]3CCOC3)c(=O)[nH]c2n1 [Example 10, 4-(((R)-1-(3-(difluoromethyl)-2-fluorophenyl)ethyl)amino)-2-methyl-6-(((S)-tetrahydrofuran-3-yl)oxy)pyrido[2,3-d]pyrimidin-7(8H)-one] | 80 nM | 34 nM |  |  |
| Cc1nc(N[C@H](C)c2cccc(C(F)F)c2F)c2cc(C3=CCC(C(=O)N(C)C)CC3)c(=O)[nH]c2n1 (stereo partly drawn) [Example 13, 4-(4-(((R)-1-(3-(difluoromethyl)-2-fluorophenyl)ethyl)amino)-2-methyl-7-oxo-7,8-dihydropyrido[2,3-d]pyrimidin-6-yl)-N,N-dimethylcyclohex-3-ene-1-carboxamide] | 79 nM | 21.5 nM |  | 137 nM |
| Cc1nc(N[C@H](C)c2cccc(C(F)F)c2F)c2cc(C3(O)CCOCC3)c(=O)[nH]c2n1 [Example 19, (R)-4-((1-(3-(difluoromethyl)-2-fluorophenyl)ethyl)amino)-6-(4-hydroxytetrahydro-2H-pyran-4-yl)-2-methylpyrido[2,3-d]pyrimidin-7(8H)-one] | 154 nM | 47 nM |  |  |
| Cc1nc(N[C@H](C)c2cccc(C(F)F)c2F)c2cc(OC3CCS(=O)(=O)CC3)c(=O)[nH]c2n1 [Example 23, (R)-4-((1-(3-(difluoromethyl)-2-fluorophenyl)ethyl)amino)-6-((1,1-dioxidotetrahydro-2H-thiopyran-4-yl)oxy)-2-methylpyrido[2,3-d]pyrimidin-7(8H)-one] | 89 nM | 10 nM |  |  |
| CC(=O)N1CC[C@H](Oc2cc3c(N[C@H](C)c4cccc(C(F)F)c4F)nc(C)nc3[nH]c2=O)C1 [Example 24, 6-(((S)-1-acetylpyrrolidin-3-yl)oxy)-4-(((R)-1-(3-(difluoromethyl)-2-fluorophenyl)ethyl)amino)-2-methylpyrido[2,3-d]pyrimidin-7(8H)-one] | 133 nM | 49 nM |  |  |
| CNC(=O)C1CCC(O)(c2cc3c(N[C@H](C)c4cccc(C(F)F)c4F)nc(C)nc3[nH]c2=O)CC1 (stereo partly drawn) [Example 29, (R)-4-(4-((1-(3-(difluoromethyl)-2-fluorophenyl)ethyl)amino)-2-methyl-7-oxo-7,8-dihydropyrido[2,3-d]pyrimidin-6-yl)-4-hydroxy-N-methylcyclohexane-1-carboxamide] | 101 nM | 91 nM |  | 545 nM |
